# In patent US7563781B2, “Triazolopyrimidine derivatives” (Janssen Pharmaceutica NV, priority 2006, dated 2009):
# Experiments:
# [1] = molecular target: T1, CAK complex (human Cdk7, human Cyclin H, MAT-1) (Homo sapiens, UniProt P50613); assay: in vitro time-resolved-fluorescence assay for the CAK kinase activity; format: biochemical; conditions: compound 20 uM; read-out: CAK % inhib; 20 uM
# T1 construct: made in house; host or cells: SF-900 insect cells co-infected with Flag-Cdk7 and Bab-Cyclin H baculoviruses
# Excerpt: Cyclin Dependent Kinase Activating Kinase (CAK) is a complex of proteins that phosphorylates a well-conserved threonine (Thr) residue in all mammalian cyclin dependent kinases (cdks). The CAK complex can also phosphorylate several components of the transcriptional machinery, such as the C-terminal domain (CTD) of RNA polymerase II in the TFIIH transcription complex. The CAK complex localizes to the nucleus, and is composed of three proteins: Cdk7, Cyclin H, and MAT-1. The exemplified method teaches the cloning and expression CAK subunits, particularly a human Cdk7 and a human Cyclin H. The method of the present invention exemplified herein is equally applicable to the cloning and expression of any CAK subunit, such as variants, structural or functional polymorphisms of the human Cdk7 or the human Cyclin H, or their orthologs in other animals such as rat, mouse, pig, dog and monkey.
# The CAK complex was purified from co-infected SF-900 insect cells at 48 hours post infection by batch immunoaffinity purification. The infected cells were pelleted by centrifugation and lysed in 1/10 of the culture volume in a solution containing 50 mM Hepes pH 7.5, 10 mM MgCl2, 1 mM DTT, 10 mM Beta-Glycerol phosphate, 20 uM Na-oVO4, 0.2 mM PMSF and 1 μg/mL each of leupeptin, aprotinin, and pepstatin on ice. Cells were mechanically lysed by trituration through a 22-gauge needle followed by sonication or alternately by nitrogen cavitation. The lysed cells were centrifuged at 50,000×G for 1 hour at 4° C. to remove debris and the supernatant was applied to 1/10 volume of prewashed Flag-M2 immunoaffinity resin (Sigma). The CAK complex, by nature of the Flag tagged Cdk7 protein, was allowed to bind to the Flag antibody of the resin overnight at 4° C. with gentle rocking. The resin was washed 4 times with 5 resin volumes of lysis buffer and the bound proteins were eluted by competition with 0.5 mg/mL Flag peptide ([…], American Peptide Co, Inc., SEQ ID NO: 16) in a total of 2 resin volumes. To remove the Flag peptide, the eluted material was applied to PD-10 gel filtration columns (Pharmacia) under conditions recommended by the manufacturer.
# Measurement of CAK kinase activity was accomplished using an antibody methodology in which a Europium labeled antibody binds preferentially to serine phosphorylated GST-CTD substrate. The long-lived europium label fluorescence allows a greater signal-to-noise ratio due to the delay in reading the emission wavelength, thereby eliminating signals from immediate fluorescence and fluorescent pharmaceutical screening compounds.
# The time-resolved-fluorescence assay for the CAK kinase activity is performed as follows. In a well of a black glutathione coated 96 well micro titer plate (Pierce Chemical, No. 15360), the following reagents were added: 1) 25 ul substrate solution containing 500 ng purified GST-CTD in a buffer having 50 mM Hepes pH 7.5, 10 mM MgCl2, 1 mM DTT, 0.2 mM PMSF, 40 uM Na-oVO4, and 22 uM ATP (as a background control, the buffer, including ATP but not substrate was added); 2) 2.5 ul of screening compounds in a diluent containing 30% DMSO/25 mM Hepes pH7.5 (As a control, the diluent only was added. Typically the final concentration of compound is 1 uM); and 3) 250 ng CAK enzyme complex in enzyme buffer containing 25 ul of 50 mM Hepes pH 7.5, 10 mM MgCl2, 1 mM DTT, 0.2 mM PMSF, and 40 uM Na-oVO4. The micro titer plate was shaken for 2 minutes on a titer plate shaker and allowed to incubate at 30° C. for 20 minutes.
# Subsequently, Kinase Stop Solution (75 mM EDTA, 0.2 mM PMSF, 1 mM DTT, 120 uM Na oVO4 in PBS) was added (50 ul/well). The plate was shaken for 2 minutes and incubated overnight at room temperature to allow substrate binding to the wells. The plate contents were flicked out, and the wells of the plate were washed 4 times with 350 ul of wash buffer (Delphia wash buffer, Perkin-Elmer, Inc.). The plate was tapped dry. […]
# [2] = molecular target: T2, Focal Adhesion Kinase (full-length Flag-tagged human FAK) (Homo sapiens, UniProt Q05397); assay: in vitro FAK ELISA kinase assay; format: biochemical; conditions: compound 10 uM; ATP 2 uM; read-out: FAK % Inhib ave: 10 uM
# T2 construct: a purified recombinant full-length Flag-tagged human FAK protein; Flag; made in house; host or cells: baculovirus infected insect cells
# Protocol: Compound effects on the tyrosine kinase activity of Focal Adhesion Kinase were assessed with an in vitro FAK ELISA kinase assay. This assay measures the incorporation of phosphate from ATP into a FAK substrate protein using an antibody specific for phospho-tyrosine.
# 500 ng of FAKsubstrate, a purified recombinant fusion protein of GST and a 73 amino acid region surrounding the Tyr397 human FAK autophosphorylation site, was coated in a high-protein binding polystyrene 96 well plate overnight in a buffer containing 50 mM Hepes, pH 7.5, 150 mM NaCl, 0.1 mM Na-oVO4, 0.1 mM NaF and 1 protease inhibitor tablet/10 mL (Complete Mini-EDTA-free, Roche). The next day this solution was removed and the wells were incubated with 0.2% BSA in 50 mM Hepes, pH 7.5, 150 mM NaCl, 0.2 mM PMSF for 1 hour at 30° C. to block unoccupied protein binding sites. The wells were then washed with 50 mM Hepes, pH 7.5, 150 mM NaCl, 0.1% Tween 20. The kinase reaction was performed with 25 ng/well of FAK enzyme (a purified recombinant full-length Flag-tagged human FAK protein made in baculovirus infected insect cells) in 0.1 mL of a buffer containing 25 mM Hepes, pH 7.5, 5 mM MgCl2, 0.5 mM MnCl2, 10 uM NaoVO4, 0.2 mM PMSF. Compounds were added from 30% DMSO stock solutions for a screening concentration of 10 uM or IC50 determinations from 50 uM in half-log dilutions. The reaction is initiated with addition of ATP to a final concentration of 2 uM and incubated at 30° C. for 1 hour. Following the kinase reaction step, the wells were washed and incubated with 50 ng of Horseradish Peroxidase conjugated anti-phosphotyrosine antibody (PT-66 HRP, Sigma) in 0.1 mL wash buffer for 1 hour at 30° C. Wells were then washed and 0.1 mL HRP substrate, Tetra-methyl Benzidine (Sigma) was added and the color reaction allowed to proceed for 2-3 minutes followed by the addition of 0.1 mL of 1N H2SO4 to stop the HRP reaction. Percent inhibition of FAK kinase activity was calculated by comparing compound containing wells to wells treated with diluent only. Background was subtracted from all wells and was defined as the activity of FAK using 500 ng/well of BSA as a substrate. IC50 values were obtained using Prism data analysis software.
# T2 sequence (Q05397 whole entry): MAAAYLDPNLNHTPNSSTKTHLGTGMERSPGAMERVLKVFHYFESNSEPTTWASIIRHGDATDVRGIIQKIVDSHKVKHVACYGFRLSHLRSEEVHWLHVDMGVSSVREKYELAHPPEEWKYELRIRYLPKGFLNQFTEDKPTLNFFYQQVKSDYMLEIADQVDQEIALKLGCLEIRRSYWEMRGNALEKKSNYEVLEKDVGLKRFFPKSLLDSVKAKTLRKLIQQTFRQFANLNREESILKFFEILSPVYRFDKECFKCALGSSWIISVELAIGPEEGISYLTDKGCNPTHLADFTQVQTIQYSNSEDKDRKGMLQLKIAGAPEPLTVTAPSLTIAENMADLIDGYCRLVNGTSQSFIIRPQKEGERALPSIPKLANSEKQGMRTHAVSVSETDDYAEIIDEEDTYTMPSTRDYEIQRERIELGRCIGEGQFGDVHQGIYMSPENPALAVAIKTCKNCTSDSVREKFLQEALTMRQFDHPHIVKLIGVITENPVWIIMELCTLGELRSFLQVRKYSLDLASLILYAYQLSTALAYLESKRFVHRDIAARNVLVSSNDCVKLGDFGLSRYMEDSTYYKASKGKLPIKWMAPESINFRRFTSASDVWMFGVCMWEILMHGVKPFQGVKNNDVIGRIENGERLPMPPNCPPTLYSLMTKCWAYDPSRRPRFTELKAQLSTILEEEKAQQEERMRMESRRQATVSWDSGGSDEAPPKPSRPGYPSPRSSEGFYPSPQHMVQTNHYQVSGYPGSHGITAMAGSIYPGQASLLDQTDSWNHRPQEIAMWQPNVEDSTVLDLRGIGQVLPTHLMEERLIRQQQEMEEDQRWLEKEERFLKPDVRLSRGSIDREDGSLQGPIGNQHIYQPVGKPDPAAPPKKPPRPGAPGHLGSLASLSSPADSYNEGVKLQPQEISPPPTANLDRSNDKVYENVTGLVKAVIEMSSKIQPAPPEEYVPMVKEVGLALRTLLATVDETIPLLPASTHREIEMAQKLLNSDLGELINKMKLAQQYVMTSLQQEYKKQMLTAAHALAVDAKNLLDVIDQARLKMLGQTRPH
# T1 sequence (P50613 with tags, fused parts or gaps): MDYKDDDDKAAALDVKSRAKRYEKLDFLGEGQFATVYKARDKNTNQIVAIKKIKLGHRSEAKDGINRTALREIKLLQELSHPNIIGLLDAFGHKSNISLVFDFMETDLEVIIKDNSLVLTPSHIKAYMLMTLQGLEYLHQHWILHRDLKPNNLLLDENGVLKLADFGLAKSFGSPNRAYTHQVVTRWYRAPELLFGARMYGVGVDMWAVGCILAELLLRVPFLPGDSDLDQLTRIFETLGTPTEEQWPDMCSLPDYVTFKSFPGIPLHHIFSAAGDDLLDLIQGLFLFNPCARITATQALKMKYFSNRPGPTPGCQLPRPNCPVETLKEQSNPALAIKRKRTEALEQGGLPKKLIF
# T1 sequence (as listed by the source partner): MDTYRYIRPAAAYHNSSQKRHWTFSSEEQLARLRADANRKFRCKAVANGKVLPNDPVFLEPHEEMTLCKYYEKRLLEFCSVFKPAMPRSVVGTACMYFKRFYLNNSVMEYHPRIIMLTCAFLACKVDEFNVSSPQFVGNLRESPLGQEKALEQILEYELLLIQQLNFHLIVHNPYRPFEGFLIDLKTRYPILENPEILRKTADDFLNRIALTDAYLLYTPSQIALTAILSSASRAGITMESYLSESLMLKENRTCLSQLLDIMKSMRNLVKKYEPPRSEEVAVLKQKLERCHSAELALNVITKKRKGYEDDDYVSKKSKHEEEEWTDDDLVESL
inhibition at 20 µM [1] [%],inhibition at 10 µM [2] [%],SMILES
-6.2,10.8,"CN(C1CCCCC1)S(=O)(=O)c1ccccc1Nc1ncc2nnn(-c3ccc(N4CCN(Cc5ccccc5)CC4)cc3)c2n1 [Compound 55, 2-{3-[4-(4-Benzyl-piperazin-1-yl)-phenyl]-3H-[1,2,3]triazolo[4,5-d]pyrimidin-5-ylamino}-N-cyclohexyl-N-methyl-benzene-sulfonamide]"
42,30.2,"CCN(CC)CCOC(=O)c1ccc(Nc2ncc3nnn(-c4ccc5c(c4)CCC5)c3n2)cc1 [Compound 32, 4-(3-Indan-5-yl-3H-[1,2,3]triazolo[4,5-d]pyrimidin-5-ylamino)-benzoic acid 2-diethylamino-ethyl ester]"
-63.7,68.8,"CCN(CC)CCNC(=O)c1ccc(-n2nnc3cnc(Nc4ccc5c(c4)CCC5)nc32)cc1 [Compound 19, N-(2-Diethylamino-ethyl)-4-[5-(indan-5-ylamino)-[1,2,3]triazolo[4,5-d]pyrimidin-3-yl]-benzamide]"
5.6,-3.2,"CNC(=O)c1cccc(-n2nnc3cnc(Nc4cccc(-c5ccccc5)c4)nc32)c1 [Compound 41, 3-[5-(Biphenyl-3-ylamino)-[1,2,3]triazolo[4,5-d]pyrimidin-3-yl]-N-methyl-benzamide]"
-0.99,26.8,"c1cc(Nc2ncc3nnn(C4CCc5ccccc54)c3n2)cc(-c2nnn[nH]2)c1 (stereo not drawn) [Compound 60, (3-Indan-1-yl-3H-[1,2,3]triazolo[4,5-d]pyrimidin-5-yl)-[3-(1H-tetrazol-5-yl)-phenyl]-amine]"
97.6,73.4,"CN(CCCOc1ccc(Nc2ncc3nnn(-c4ccc5c(c4)CCC5)c3n2)cc1)CC(=O)O [Compound 89, ({3-[4-(3-Indan-5-yl-3H-[1,2,3]triazolo[4,5-d]pyrimidin-5-ylamino)-phenoxy]-propyl]-methyl-amino)-acetic acid]"
10.2,34.7,"O=C(NCCN1CCOCC1)c1ccc(Nc2ncc3nnn(-c4ccc5c(c4)CCC5)c3n2)cc1 [Compound 76, 4-(3-Indan-5-yl-3H-[1,2,3]triazolo[4,5-d]pyrimidin-5-ylamino)-N-(2-morpholin-4-yl-ethyl)-benzamide]"
16.2,21.8,"NS(=O)(=O)c1ccccc1-n1nnc2cnc(Nc3ccc4[nH]ncc4c3)nc21 [Compound 45, 2-[5-(1H-Indazol-5-ylamino)-[1,2,3]triazolo[4,5-d]pyrimidin-3-yl]-benzene-sulfonamide]"
11.8,33.3,COc1cc(-n2nnc3cnc(Nc4ccc5[nH]ncc5c4)nc32)cc(OC)c1OC [Compound 43]
53.8,86.8,"CN(C)CC(O)COc1ccc(Nc2ncc3nnn(-c4ccc5c(c4)Cc4ccccc4-5)c3n2)cc1 (stereo not drawn) [Compound 17, 1-Dimethylamino-3-{4-[3-(9H-fluoren-2-yl)-3H-[1,2,3]triazolo[4,5-d]pyrimidin-5-ylamino]-phenoxy}-propan-2-ol]"
-1.5,3.2,"CNC(=O)c1cccc(Nc2ncc3nnn(-c4ccc(-c5csnn5)cc4)c3n2)c1 [Compound 39, N-Methyl-3-[3-(4-[1,2,3]thiadiazol-4-yl-phenyl)-3H-[1,2,3]triazolo[4,5-d]pyrimidin-5-ylamino]-benzamide]"
72.1,54.2,"O=C(NCCCN1CCCC1=O)c1ccc(Nc2ncc3nnn(-c4ccc5c(c4)CCC5)c3n2)cc1 [Compound 77, 4-(3-Indan-5-yl-3H-[1,2,3]triazolo[4,5-d]pyrimidin-5-ylamino)-N-[3-(2-oxo-pyrrolidin-1-yl)-propyl]-benzamide]"
110,65.1,"CCCCNS(=O)(=O)c1ccc(OC)c(-n2nnc3cnc(Nc4ccc(C(=O)NCCN(CC)CC)cc4)nc32)c1 [Compound 86, 4-[3-(5-Butylsulfamoyl-2-methoxy-phenyl)-3H-[1,2,3]triazolo[4,5-d]pyrimidin-5-ylamino]-N-(2-diethylamino-ethyl)-benzamide]"
5.45,28.7,"CCN(CC)CCNC(=O)c1ccc(Nc2ncc3nnn(-c4ccc(C5CCCCC5)cc4)c3n2)cc1 [Compound 83, 4-[3-(4-Cyclohexyl-phenyl)-3H-[1,2,3]triazolo[4,5-d]pyrimidin-5-ylamino]-N-(2-diethylamino-ethyl)-benzamide]"
25.9,13,"CCOC(=O)c1cccc(Nc2ncc3nnn(-c4ccc5c(c4)CCC5)c3n2)c1 [Compound 26, 3-(3-Indan-5-yl-3H-[1,2,3]triazolo[4,5-d]pyrimidin-5-ylamino)-benzoic acid ethyl ester]"
–,91.6,"CCCCNS(=O)(=O)c1cccc(-n2nnc3cnc(Nc4ccc(OCC(O)CN(C)C)cc4)nc32)c1 (stereo not drawn) [Compound 35, N-Butyl-3-{5-[4-(3-dimethylamino-2-hydroxy-propoxy)-phenylamino]-[1,2,3]triazolo[4,5-d]pyrimidin-3-yl}-benzene-sulfonamide]"
–,53.2,"COc1ccc(-n2nnc3cnc(Nc4ccc(OCC(O)CN(C)C)cc4)nc32)cc1OC (stereo not drawn) [Compound 3, 1-{4-[3-(3,4-Dimethoxy-phenyl)-3H-[1,2,3]triazolo[4,5-d]pyrimidin-5-ylamino]-phenoxy]-3-dimethylamino-propan-2-ol]"
–,95,"CN(C)CCCOc1ccc(Nc2ncc3nnn(-c4ccc5c(c4)CCC5)c3n2)cc1 [Compound 4, [4-(3-Dimethylamino-propoxy)-phenyl]-(3-indan-5-yl-3H-[1,2,3]triazolo[4,5-d]pyrimidin-5-yl)-amine]"
